Test results as given in ChEMBL document CHEMBL1201862, “PubChem BioAssay data set” (2004).
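48-hour exposure; five concentrations; linearly interpolated endpoints. At the GI50, growth is halved.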 The source made the active and inactive calls. Rule as the data show it: active = GI50 up to about 1.1 µM and inactive = higher.

How the values were obtained:
Assay in all cases: DTP human tumour cell line panel, 48 h
[1] = test system: TK-10
[2] = test system: SF-539
[3] = test system: RPMI-8226
[4] = test system: KM12
[5] = test system: UACC-257
[6] = test system: COLO 205
[7] = test system: UO-31
[8] = test system: SK-MEL-28
[9] = test system: CCRF-CEM
[10] = test system: SNB-19
[11] = test system: NCI-H460
[12] = test system: SK-MEL-5
[13] = test system: MOLT-4
[14] = test system: SNB-75
[15] = test system: SK-OV-3
[16] = test system: SR

Measured: GI50

CCc1cccc(C(C)CC)c1NC(=O)C(=O)Cc1nc2ccccc2o1 (stereo not drawn)
inactive: [1] > 50 µM | [2] > 50 µM | [3] > 50 µM | [4] > 50 µM | [5] > 50 µM | [6] > 50 µM | [7] > 50 µM | [8] > 50 µM | [9] > 50 µM | [10] > 50 µM | [11] > 50 µM | [12] > 50 µM | [13] > 34.5 µM | [14] > 50 µM | [15] > 50 µM

O=[N+]([O-])c1cccc(C2=NOC3C4CCC(C4)C23)c1 (stereo not drawn)
inactive: [1] > 100 µM | [2] > 100 µM | [3] > 100 µM | [4] > 100 µM | [5] > 100 µM | [6] > 100 µM | [7] > 100 µM | [16] > 100 µM | [8] > 100 µM | [11] > 100 µM | [12] > 100 µM | [13] > 100 µM | [14] > 100 µM | [15] > 100 µM

C#CCN(N=O)C(=O)NC(CCCCNC(=O)OCc1ccccc1)C(=O)OCc1ccccc1 (stereo not drawn)
inactive: [1] 27.7 µM | [3] 18.7 µM | [4] 77.3 µM | [5] 28.1 µM | [6] 28.5 µM | [7] 30.8 µM | [8] 26.1 µM | [9] 17.5 µM | [10] 47.2 µM | [11] 61 µM | [13] 16.8 µM | [14] 33.5 µM | [15] > 100 µM

COCCOCOC(CCCCO)c1cc(C)c(O[Si](C)(C)C(C)(C)C)c(C)c1 (stereo not drawn)
inactive: [1] 13.4 µM | [2] 12.4 µM | [3] 2.08 µM | [4] 4.59 µM | [5] 3.01 µM | [6] 7.71 µM | [7] 4.11 µM | [8] 12.3 µM | [9] 4.39 µM | [10] 6.35 µM | [11] 5.24 µM | [12] 2.64 µM | [13] 2.86 µM | [14] 10.6 µM | [15] 17.6 µM

CC1=NN(c2ccccc2)C(=O)C1=C1SCCS1
inactive: [1] > 55.1 µM | [2] > 100 µM | [3] > 25.8 µM | [4] > 88.9 µM | [5] > 74.6 µM | [6] 25.1 µM | [7] 37.9 µM | [8] > 100 µM | [9] 29.2 µM | [10] > 86.7 µM | [11] 50.7 µM | [12] 59.3 µM | [13] 15 µM | [14] > 88.1 µM | [15] > 100 µM

CN(C)CCNC(=O)c1cccc2c1nc(-c1ccncc1)c1ccccc12
active: [11] 0.0408 µM | [13] 0.0316 µM
inactive: [1] 2.21 µM | [2] 2.03 µM | [4] 5.28 µM | [5] 3.01 µM | [6] 1.61 µM | [7] 1.63 µM | [8] 5.15 µM | [9] 2.4 µM | [10] 3.94 µM | [12] 1.81 µM | [14] 3.36 µM | [15] 5.71 µM

Cc1cc(N(CCC#N)CCC#N)ccc1/C=C1N=C(/C=C/c2ccccc2)N(c2ccc(S(N)(=O)=O)cc2)C\1=O
inactive: [1] > 100 µM | [2] > 100 µM | [3] 34.3 µM | [4] > 100 µM | [5] > 100 µM | [6] > 100 µM | [7] > 100 µM | [16] > 100 µM | [8] > 100 µM | [9] > 100 µM | [10] > 100 µM | [11] > 100 µM | [12] > 100 µM | [13] > 100 µM | [14] > 100 µM | [15] > 100 µM

CCOP(=O)(OCC)C(C(=O)OC)C(=O)C(=O)Nc1c(C)cc(Br)cc1C (stereo not drawn)
inactive: [1] > 100 µM | [2] > 100 µM | [3] > 100 µM | [4] > 100 µM | [5] > 100 µM | [6] > 100 µM | [7] > 100 µM | [8] > 100 µM | [9] > 100 µM | [10] > 100 µM | [11] > 100 µM | [12] > 100 µM | [13] > 100 µM | [14] > 100 µM | [15] > 100 µM

COc1ccc2oc3c4c2c1CCC4CCC3=O (stereo not drawn)
inactive: [1] 5.47 µM | [2] > 100 µM | [3] > 100 µM | [4] > 100 µM | [5] 16.8 µM | [6] > 100 µM | [7] 25.2 µM | [16] > 100 µM | [8] > 100 µM | [9] > 100 µM | [10] > 100 µM | [11] > 100 µM | [12] > 100 µM | [13] 52.8 µM | [14] 28.1 µM | [15] > 100 µM

O=C(Cc1ccccc1)N/N=C(\C1=Nc2ccc([N+](=O)[O-])cc2NC1O)C(O)c1ccc([N+](=O)[O-])cc1 (stereo not drawn)
inactive: [1] > 100 µM | [2] > 100 µM | [3] 44.4 µM | [5] > 100 µM | [6] 64.1 µM | [7] 52.8 µM | [16] > 100 µM | [9] 13.8 µM | [10] > 100 µM | [11] > 100 µM | [12] 68.9 µM | [14] > 100 µM | [15] > 100 µM

Cc1c(C(=O)/C=C/c2ccco2)[n+]([O-])c2ccccc2[n+]1[O-]
inactive: [1] > 100 µM | [2] > 100 µM | [3] 41.8 µM | [4] > 100 µM | [5] > 100 µM | [6] > 100 µM | [7] > 100 µM | [16] 55.2 µM | [8] > 100 µM | [9] 36.1 µM | [10] > 100 µM | [11] > 100 µM | [13] 39.6 µM | [14] > 100 µM | [15] > 100 µM

COc1ccc2nc(-c3ccc(OCc4ccccc4)cc3)ccc2c1
inactive: [1] > 100 µM | [2] > 100 µM | [3] > 100 µM | [4] > 100 µM | [5] > 100 µM | [6] > 100 µM | [7] > 100 µM | [16] > 100 µM | [8] > 100 µM | [9] > 100 µM | [10] > 100 µM | [11] > 100 µM | [12] > 100 µM | [13] > 100 µM | [14] > 100 µM | [15] > 100 µM

COc1ccc(C(=O)Cc2c(C(=O)c3ccccc3)c3ccccc3n2C(=O)c2ccccc2)cc1
inactive: [1] > 100 µM | [2] > 100 µM | [3] 11.9 µM | [4] 53.8 µM | [5] > 100 µM | [6] > 100 µM | [7] 32.9 µM | [16] 23.8 µM | [8] > 100 µM | [9] 46.6 µM | [10] 92 µM | [11] 26.4 µM | [12] 17.7 µM | [13] 25.6 µM | [14] 18.3 µM

CC1=C(C(=O)Nc2cccc(Cl)c2)C(c2ccccc2F)C(C(=O)Nc2cccc(Cl)c2)=C(C)N1
inactive: [1] 21.5 µM | [2] 13.9 µM | [3] 2.77 µM | [4] 7.55 µM | [5] 10.2 µM | [6] 11.2 µM | [7] 7.94 µM | [8] 10.6 µM | [9] 4.61 µM | [10] 19.2 µM | [11] 6.7 µM | [12] 13.5 µM | [13] 2.51 µM | [14] 6.79 µM | [15] 21.5 µM

BrC1(Br)C2/C=C\CCCCC21 (stereo not drawn)
inactive: [1] > 100 µM | [2] > 100 µM | [4] > 100 µM | [5] > 100 µM | [6] > 100 µM | [16] > 100 µM | [8] > 100 µM | [9] > 100 µM | [10] > 100 µM | [11] > 100 µM | [13] > 100 µM

CCC1CN2CCc3c([nH]c4ccccc34)C2C[C@@H]1CC(=O)N(C)C (stereo partly drawn)
inactive: [1] > 100 µM | [2] > 100 µM | [4] > 100 µM | [5] > 100 µM | [6] > 100 µM | [7] > 100 µM | [16] 78.7 µM | [8] > 100 µM | [9] > 100 µM | [10] > 100 µM | [11] > 100 µM | [12] > 100 µM | [13] > 100 µM | [14] 21.4 µM | [15] 39.6 µM

O=C(O)CNS(=O)(=O)c1ccc(NCc2ccccc2)cc1
inactive: [1] > 100 µM | [2] > 100 µM | [3] > 100 µM | [5] > 100 µM | [6] > 100 µM | [7] > 100 µM | [8] > 100 µM | [9] > 100 µM | [10] > 100 µM | [11] > 100 µM | [12] > 100 µM | [13] > 100 µM | [14] > 100 µM | [15] > 100 µM

COc1ccc(/C=C\c2cc(OC)c3c(c2)OCO3)c(O)c1O
inactive: [1] 24.9 µM | [2] 2.08 µM | [3] 2.56 µM | [4] 5.62 µM | [5] 14.1 µM | [6] 21.2 µM | [7] 5.87 µM | [16] 3.78 µM | [8] 5.65 µM | [9] 2.98 µM | [10] 4.74 µM | [11] 5.37 µM | [12] 2.3 µM | [13] 6.35 µM | [15] 18.6 µM
active: [14] 0.0256 µM
